Assay results as given in ChEMBL document CHEMBL5523713, “Development of novel N-aryl-2,4-bithiazole-2-amine-based CYP1B1 degraders for reversing drug resistance” (Eur J Med Chem, 2024).
Active and inactive are the calls of the source. The rule behind the calls is not given here.

Legend:
[1] = biological target: T1, Protein cereblon/Cytochrome P450 1B1 (Homo sapiens, UniProt Q16678+Q96SW2); test: PROTAC activity at CRBN/CYP1B1 in human A549/Taxol cells assessed as degradation by measuring fold change in remaining CYP1B1 level at 1 nM incubated for 24 hrs by Western blotting analysis (reference value: 1); format: ADME, cell-based; conditions: 0.001 µM
[2] = biological target: T1, Protein cereblon/Cytochrome P450 1B1; test: PROTAC activity at CRBN/CYP1B1 in human A549/Taxol cells assessed as degradation by measuring fold change in remaining CYP1B1 level at 1000 nM incubated for 24 hrs by Western blotting analysis (reference value: 1); format: ADME, cell-based; conditions: 1 µM
[3] = biological target: T2, von Hippel-Lindau disease tumor suppressor/Cytochrome P450 1B1 (Homo sapiens, UniProt Q16678+P40337); test: PROTAC activity at VHL/CYP1B1 in human A549/Taxol cells assessed as degradation by measuring fold change in remaining CYP1B1 level at 1000 nM incubated for 24 hrs by Western blotting analysis (reference value: 1); format: ADME, cell-based; conditions: 1 µM
[4] = biological target: T2, von Hippel-Lindau disease tumor suppressor/Cytochrome P450 1B1; test: PROTAC activity at VHL/CYP1B1 in human A549/Taxol cells assessed as degradation by measuring fold change in remaining CYP1B1 level at 1 nM incubated for 24 hrs by Western blotting analysis (reference value: 1); format: ADME, cell-based; conditions: 0.001 µM
A549/TR [5] = test: Reversal of taxol resistance in human A549/Taxol cells assessed as decrease in cell viability at 1 to 10 nM incubated for 48 to 72 hrs by MTT assay; format: functional, cell-based; conditions: dose 1-10 nM, time 48-72 hrs
A549/TR [6] = test: Reversal of taxol resistance in human A549/Taxol cells assessed as decrease in cell viability at 0.1 nM incubated for 48 to 72 hrs by MTT assay; format: functional, cell-based; conditions: time 48-72 hrs
A549/TR [7] = test: Inhibition of epithelial-to-mesenchymal transition in human A549/Taxol cells assessed as upregulation of E-cadherin protein expression at 0.1 to 10 nM incubated for 24 hrs by immunoblot analysis; format: functional, cell-based; conditions: dose 0.1-10 nM
[8] = biological target: T2, von Hippel-Lindau disease tumor suppressor/Cytochrome P450 1B1; test: PROTAC activity at VHL/CYP1B1 in human A549/Taxol cells assessed as reduction in CYP1B1 level at 1 nM incubated for 24 hrs by Western blotting analysis; format: ADME, cell-based; design: scale not given: the % may be the effect or the level left; conditions: 0.001 µM
[9] = biological target: T2, von Hippel-Lindau disease tumor suppressor/Cytochrome P450 1B1; test: PROTAC activity at VHL/CYP1B1 in human A549/Taxol cells assessed as reduction in CYP1B1 level at 10 nM incubated for 24 hrs by Western blotting analysis; format: ADME, cell-based; design: scale not given: the % may be the effect or the level left; conditions: 0.01 µM
A549/TR [10] = test: Inhibition of epithelial-to-mesenchymal transition in human A549/Taxol cells assessed as downregulation of N-cadherin protein expression at 0.1 to 10 nM incubated for 24 hrs by immunoblot analysis; format: functional, cell-based; conditions: dose 0.1-10 nM
[11] = biological target: von Hippel-Lindau disease tumor suppressor/Cytochrome P450 1A1 (Homo sapiens, UniProt P04798+P40337); test: PROTAC activity at VHL/CYP1A1 (unknown origin); format: ADME, protein assay
[12] = biological target: Proto-oncogene tyrosine-protein kinase Src (Homo sapiens) (UniProt P12931); test: Inhibition of SRC phosphorylation in human A549/Taxol cells incubated for 24 hrs by Western blotting analysis; format: cell-based; conditions: dose 0.1-10 nM
A549/TR [13] = test: Effect on total SRC protein level in human A549/Taxol cells incubated for 24 hrs by Western blotting analysis; format: functional, cell-based; conditions: dose 0.1-10 nM
[14] = biological target: T2, von Hippel-Lindau disease tumor suppressor/Cytochrome P450 1B1; test: PROTAC activity at VHL/CYP1B1 in human A549/Taxol cells assessed as reduction in CYP1B1 level incubated for 24 hrs by Western blotting analysis; format: ADME, cell-based
[15] = biological target: Focal adhesion kinase 1 (Homo sapiens) (UniProt Q05397); test: Inhibition of FAK phosphorylation in human A549/Taxol cells at 0.1 to 10 nM incubated for 24 hrs by Western blotting analysis; format: cell-based; conditions: dose 0.1-10 nM
A549/TR [16] = test: Effect on total FAK protein level in human A549/Taxol cells at 0.1 to 10 nM incubated for 24 hrs by Western blotting analysis; format: functional, cell-based; conditions: dose 0.1-10 nM
A549/TR [17] = test: Inhibition of epithelial-to-mesenchymal transition in human A549/Taxol cells assessed as downregulation of vimentin protein expression at 0.1 to 10 nM incubated for 24 hrs by immunoblot analysis; format: functional, cell-based; conditions: dose 0.1-10 nM
[18] = biological target: T2, von Hippel-Lindau disease tumor suppressor/Cytochrome P450 1B1; test: PROTAC activity at VHL/CYP1B1 in human A549/Taxol cells assessed as reduction in CYP1B1 level at 10 nM incubated for 1 hr by Western blotting analysis; format: ADME, cell-based; conditions: 0.01 µM
A549/TR [19] = test: Downregulation of P-glycoprotein expression in human A549/Taxol cells at 0.1 to 10 nM by Western blotting analysis; format: functional, cell-based; conditions: dose 0.1-10 nM
A549/TR [20] = test: Inhibition of cell invasion in human A549/Taxol cells at 0.1 to 10 nM incubated for 24 hrs by crystal violet staining based transwell assay; format: functional; conditions: dose 0.1-10 nM
A549/TR [21] = test: Inhibition of cell migration in human A549/Taxol cells incubated for 48 hrs by wound healing assay; format: functional, cell-based; conditions: dose 0.1-10 nM
A549/TR [22] = test: Effect on paxillin protein level in human A549/Taxol cells at 0.1 to 10 nM incubated for 24 hrs by Western blotting analysis; format: functional, cell-based; conditions: dose 0.1-10 nM
Cytochrome P450 1B1 = biological target: T3, Cytochrome P450 1B1 (Homo sapiens, UniProt Q16678); test: Inhibition of recombinant human CYP1B1 using 7-ethyl-O-resorufin as substrate incubated for 30 mins in presence of NADPH by EROD assay; format: ADME; conditions: human, recombinant enzyme, 0.5 h; time 30 min
T3 sequence (Q16678 whole entry): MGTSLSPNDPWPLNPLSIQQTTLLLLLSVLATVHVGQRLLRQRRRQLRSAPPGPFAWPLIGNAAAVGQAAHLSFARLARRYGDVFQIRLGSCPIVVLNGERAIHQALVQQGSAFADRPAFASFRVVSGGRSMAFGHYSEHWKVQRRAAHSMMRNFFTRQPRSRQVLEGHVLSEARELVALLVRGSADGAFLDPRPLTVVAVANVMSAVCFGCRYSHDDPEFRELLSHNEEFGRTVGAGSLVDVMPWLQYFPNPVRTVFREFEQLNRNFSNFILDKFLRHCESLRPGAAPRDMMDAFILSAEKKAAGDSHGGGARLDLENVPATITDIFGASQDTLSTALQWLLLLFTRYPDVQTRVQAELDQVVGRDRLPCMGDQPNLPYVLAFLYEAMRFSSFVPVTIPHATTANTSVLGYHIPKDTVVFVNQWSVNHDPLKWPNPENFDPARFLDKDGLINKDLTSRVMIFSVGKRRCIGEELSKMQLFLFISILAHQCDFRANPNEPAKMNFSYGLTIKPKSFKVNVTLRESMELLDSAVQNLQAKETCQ

[23] = biological target: T2, von Hippel-Lindau disease tumor suppressor/Cytochrome P450 1B1; test: PROTAC activity at VHL/CYP1B1 in human A549/Taxol cells assessed as reduction in CYP1B1 level at 1000 nM incubated for 24 hrs by Western blotting analysis; format: ADME, cell-based; design: scale not given: the % may be the effect or the level left; conditions: 1 µM

T2 sequence (P40337 whole entry, one chain of several): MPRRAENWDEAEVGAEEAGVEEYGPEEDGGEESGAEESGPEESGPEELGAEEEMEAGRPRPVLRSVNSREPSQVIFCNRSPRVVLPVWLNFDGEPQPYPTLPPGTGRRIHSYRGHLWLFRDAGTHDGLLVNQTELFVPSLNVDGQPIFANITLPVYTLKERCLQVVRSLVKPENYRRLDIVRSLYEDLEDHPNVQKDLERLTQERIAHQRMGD
T1 sequence (Q96SW2 whole entry, one chain of several): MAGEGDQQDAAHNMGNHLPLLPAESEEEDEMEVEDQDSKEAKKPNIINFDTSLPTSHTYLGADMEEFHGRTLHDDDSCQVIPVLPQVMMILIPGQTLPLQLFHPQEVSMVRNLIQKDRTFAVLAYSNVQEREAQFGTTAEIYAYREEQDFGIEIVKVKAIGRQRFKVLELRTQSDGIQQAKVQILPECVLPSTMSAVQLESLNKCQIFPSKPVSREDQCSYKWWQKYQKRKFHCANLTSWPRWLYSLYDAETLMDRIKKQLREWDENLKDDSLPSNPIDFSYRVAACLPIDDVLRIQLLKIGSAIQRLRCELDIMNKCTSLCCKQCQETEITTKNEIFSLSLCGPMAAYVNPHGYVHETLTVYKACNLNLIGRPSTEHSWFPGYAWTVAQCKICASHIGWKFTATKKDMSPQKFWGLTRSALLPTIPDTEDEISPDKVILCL
Focal adhesion kinase 1 (Homo sapiens), sequence (Q05397 2-1052 limits assumed): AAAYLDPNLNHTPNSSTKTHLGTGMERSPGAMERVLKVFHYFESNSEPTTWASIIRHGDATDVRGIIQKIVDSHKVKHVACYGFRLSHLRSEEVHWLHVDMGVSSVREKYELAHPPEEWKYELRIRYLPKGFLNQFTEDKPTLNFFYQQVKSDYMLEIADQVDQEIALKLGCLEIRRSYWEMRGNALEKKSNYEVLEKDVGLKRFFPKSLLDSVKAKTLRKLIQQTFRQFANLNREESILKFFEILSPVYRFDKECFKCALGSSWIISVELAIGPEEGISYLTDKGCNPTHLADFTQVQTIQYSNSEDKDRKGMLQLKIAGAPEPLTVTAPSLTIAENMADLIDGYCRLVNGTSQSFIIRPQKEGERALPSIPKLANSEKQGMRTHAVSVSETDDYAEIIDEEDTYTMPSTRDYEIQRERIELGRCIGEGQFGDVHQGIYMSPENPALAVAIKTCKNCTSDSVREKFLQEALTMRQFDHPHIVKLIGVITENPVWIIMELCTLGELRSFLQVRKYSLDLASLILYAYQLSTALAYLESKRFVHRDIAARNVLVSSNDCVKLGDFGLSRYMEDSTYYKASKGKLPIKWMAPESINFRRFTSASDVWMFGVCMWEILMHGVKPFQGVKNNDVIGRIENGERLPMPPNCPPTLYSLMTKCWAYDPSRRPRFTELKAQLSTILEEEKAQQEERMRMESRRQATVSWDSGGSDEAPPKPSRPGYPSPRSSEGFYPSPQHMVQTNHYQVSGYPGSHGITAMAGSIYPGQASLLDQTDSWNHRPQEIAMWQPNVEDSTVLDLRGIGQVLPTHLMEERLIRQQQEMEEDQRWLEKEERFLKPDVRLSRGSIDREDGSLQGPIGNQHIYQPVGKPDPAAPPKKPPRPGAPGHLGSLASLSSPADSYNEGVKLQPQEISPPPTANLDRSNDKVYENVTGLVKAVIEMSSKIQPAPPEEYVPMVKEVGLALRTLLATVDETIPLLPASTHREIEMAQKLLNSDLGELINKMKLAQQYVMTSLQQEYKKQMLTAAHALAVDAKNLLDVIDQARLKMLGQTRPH
Proto-oncogene tyrosine-protein kinase Src (Homo sapiens), sequence (P12931 2-536 limits assumed): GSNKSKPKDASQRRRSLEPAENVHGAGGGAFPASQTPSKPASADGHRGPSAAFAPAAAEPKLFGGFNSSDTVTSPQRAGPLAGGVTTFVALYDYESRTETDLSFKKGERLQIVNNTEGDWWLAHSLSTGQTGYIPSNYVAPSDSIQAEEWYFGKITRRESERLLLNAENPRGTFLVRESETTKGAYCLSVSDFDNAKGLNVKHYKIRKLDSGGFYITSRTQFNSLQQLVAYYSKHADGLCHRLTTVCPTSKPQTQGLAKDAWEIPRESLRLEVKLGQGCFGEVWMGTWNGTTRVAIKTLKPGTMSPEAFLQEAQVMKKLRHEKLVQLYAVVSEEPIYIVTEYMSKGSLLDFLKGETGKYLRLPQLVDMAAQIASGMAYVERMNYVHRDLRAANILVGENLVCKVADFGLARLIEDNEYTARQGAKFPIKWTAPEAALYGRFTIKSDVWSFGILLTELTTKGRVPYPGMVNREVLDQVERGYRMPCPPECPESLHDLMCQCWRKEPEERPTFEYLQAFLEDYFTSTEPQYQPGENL
von Hippel-Lindau disease tumor suppressor/Cytochrome P450 1A1, sequence (P04798 whole entry): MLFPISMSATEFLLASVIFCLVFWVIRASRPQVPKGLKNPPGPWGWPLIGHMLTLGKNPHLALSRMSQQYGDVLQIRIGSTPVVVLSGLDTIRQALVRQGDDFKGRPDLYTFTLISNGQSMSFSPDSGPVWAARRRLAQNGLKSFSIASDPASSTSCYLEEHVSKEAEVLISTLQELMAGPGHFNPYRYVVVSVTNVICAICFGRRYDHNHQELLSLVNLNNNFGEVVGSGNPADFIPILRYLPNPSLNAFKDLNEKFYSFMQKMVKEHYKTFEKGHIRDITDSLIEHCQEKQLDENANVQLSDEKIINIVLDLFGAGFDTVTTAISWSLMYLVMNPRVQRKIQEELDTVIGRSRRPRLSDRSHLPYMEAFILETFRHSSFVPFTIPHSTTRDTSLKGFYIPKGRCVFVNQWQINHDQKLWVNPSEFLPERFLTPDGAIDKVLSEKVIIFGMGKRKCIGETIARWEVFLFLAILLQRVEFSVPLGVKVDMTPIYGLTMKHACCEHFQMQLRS
von Hippel-Lindau disease tumor suppressor/Cytochrome P450 1A1, sequence (P40337 whole entry): as the sequence (P40337 whole entry, one chain of several) above

SMILES | fold change (FC) [1] | fold change (FC) [2] | fold change (FC) [3] | fold change (FC) [4] | further results
O=C1CCC(N2Cc3c(NC(=O)CCCCCCCCCC(=O)Nc4ccc(-c5csc(-c6csc(Nc7ccc(Cl)cc7)n6)n5)cc4)cccc3C2=O)C(=O)N1 (configuration not stated) | 1.1 | 1.3 | – | – | –
Cc1ncsc1-c1ccc([C@H](C)NC(=O)[C@@H]2C[C@@H](O)CN2C(=O)[C@@H](NC(=O)CCCCCCCCCOc2ccccc2-c2csc(-c3csc(Nc4ccc(Cl)cc4)n3)n2)C(C)(C)C)cc1 | – | – | 1.5 | 1.5 | –
Cc1ncsc1-c1ccc([C@H](C)NC(=O)[C@@H]2C[C@@H](O)CN2C(=O)[C@@H](NC(=O)CCCCCCOc2ccccc2-c2csc(-c3csc(Nc4ccc(Cl)cc4)n3)n2)C(C)(C)C)cc1 | – | – | 0.6 | 0.5 | Activity (A549/TR [5]): Active; Activity (A549/TR [6]): Active; inhibition (A549/TR [7]): Active; Activity [8]: 50%; Activity [9]: 80%; inhibition (A549/TR [10]): Active; Activity [11]: Not Active; inhibition [12]: Active; Activity (A549/TR [13]): Dose-Dependent Effect; DC50 [14]: 0.1 nM; inhibition [15]: Active; Activity (A549/TR [16]): inactive; inhibition (A549/TR [17]): Active; Activity [18]: Active; Activity (A549/TR [19]): Active; inhibition (A549/TR [20]): Active; inhibition (A549/TR [21]): Dose-Dependent Effect; Activity (A549/TR [22]): Active; inhibition (INH) (Cytochrome P450 1B1): Active; Activity [23]: 60%
O=C1CCC(N2Cc3c(NC(=O)CCCCCCCCCCCCCC(=O)Nc4ccc(-c5csc(-c6csc(Nc7ccc(Cl)cc7)n6)n5)cc4)cccc3C2=O)C(=O)N1 (configuration not stated) | 0.9 | 1 | – | – | –
Cc1ncsc1-c1ccc([C@H](C)NC(=O)[C@@H]2C[C@@H](O)CN2C(=O)[C@@H](NC(=O)CCCCCCCCCCOc2ccccc2-c2csc(-c3csc(Nc4ccc(Cl)cc4)n3)n2)C(C)(C)C)cc1 | – | – | 1.8 | 1.7 | –
O=C1CCC(N2C(=O)c3cccc(NC(=O)CN4CCN(CCCCCCCC(=O)Nc5ccc(-c6csc(-c7csc(Nc8ccc(Cl)cc8)n7)n6)cc5)CC4)c3C2=O)C(=O)N1 (configuration not stated) | 0.7 | 1 | – | – | –
O=C1CCC(N2C(=O)c3cccc(NC(=O)CN4CCN(CCCCCCC(=O)Nc5ccc(-c6csc(-c7csc(Nc8ccc(Cl)cc8)n7)n6)cc5)CC4)c3C2=O)C(=O)N1 (configuration not stated) | 0.8 | 0.9 | – | – | –
O=C1CCC(N2C(=O)c3cccc(NC(=O)CN4CCN(CCCCCC(=O)Nc5ccc(-c6csc(-c7csc(Nc8ccc(Cl)cc8)n7)n6)cc5)CC4)c3C2=O)C(=O)N1 (configuration not stated) | 1 | 1.2 | – | – | –
O=C1CCC(N2C(=O)c3cccc(NC(=O)CN4CCN(CCCCCCCCC(=O)Nc5ccc(-c6csc(-c7csc(Nc8ccc(Cl)cc8)n7)n6)cc5)CC4)c3C2=O)C(=O)N1 (configuration not stated) | 1 | 1.6 | – | – | –
Cc1ncsc1-c1ccc([C@H](C)NC(=O)[C@@H]2C[C@@H](O)CN2C(=O)[C@@H](NC(=O)Cn2cc(COCCOCCOc3ccccc3-c3csc(-c4csc(Nc5ccc(Cl)cc5)n4)n3)nn2)C(C)(C)C)cc1 | – | – | 1.3 | 1.1 | –
O=C1CCC(N2Cc3c(NC(=O)CCCCCCCCCCCC(=O)Nc4ccc(-c5csc(-c6csc(Nc7ccc(Cl)cc7)n6)n5)cc4)cccc3C2=O)C(=O)N1 (configuration not stated) | 0.7 | 1 | – | – | –
